According to patent US9962391B2, “Composition and method for compounded therapy” (CMPD LICENSING, LLC, priority 2011, dated 2018):

How the values were obtained:
[1] = 198 Day Potency Test of transdermal cream including meloxicam, lamotrigine, lidocaine, and prilocaine; format: physicochemical; conditions: 198 days, stored at approximately 20° C. to 25° C., in cream, HPLC; for % of EXP.: relative to expected amount
Protocol: (§1) The sample was stored in approximately 20° C. to 25° C. (68° F. to 77° F.) conditions, and contained one large white tube with cream in a clear bag.

[2] = Forced degradation study (heat and acid) on Meloxicam/Gabapentin/Lidocaine/Prilocaine Cream 0.09%/2.5%/2.15%/2.15%; conditions: untreated, heat treated and acid treated samples, undiluted extracts
Protocol: (§2) The column temperature was 50° C.
as §2

[3] = 100 Day Potency Test of transdermal cream including meloxicam, topiramate, lidocaine, and prilocaine; format: physicochemical; conditions: 100 days, stored at approximately 20° C. to 25° C., in cream, HPLC; for % of EXP.: relative to expected amount
Protocol: as §1

Structure (SMILES) | Results (amount of analyte found) [1] | % of EXP. [1] | Degradation seen in Total Ion Chromatograms (TIC) [2] | Results (amount of analyte found) [3] | % of EXP. [3]
Nc1nnc(-c2cccc(Cl)c2Cl)c(N)n1 [Lamotrigine] | 2.463% | 98.5% | – | – | –
NCC1(CC(=O)O)CCCCC1 [Gabapentin] | – | – | major degradant at 1.18 minute was caused both by acid and by heat | – | –
CCCNC(C)C(=O)Nc1ccccc1C (stereo not shown) [Prilocaine] | 2.118% | 105.9% | – | 1.899% | 95.0%
CCN(CC)CC(=O)Nc1c(C)cccc1C [Lidocaine] | 1.927% | 96.4% | – | 1.700% | 85.0%
CC1(C)O[C@@H]2[C@@H](CO[C@@]3(COS(N)(=O)=O)OC(C)(C)O[C@@H]23)O1 [Topiramate] | – | – | – | 2.368% | 94.7%
